Like-named read-outs stand apart in the source and are kept apart here.
Key:
Assay type in all cases: cell-based
[1] = tested on: UPF16A leukemia cell line; experiment: AnnexinV/PI assay, cell death induction, 48 hrs
Method: (§1) This effect seems to be based mainly on the cytostatic effect of compound 1. To define the ability to kill cells, cell death-inducing potency (cytotoxic efficacy) of DFX and compound 1 have been tested via annexin V/PI staining commonly used as a measure of apoptotic/necrotic cell death. Briefly, cells were seeded in 12-well plate at 100,000 per well, incubated with the selected compounds for 48 hours, then floating cells were spun, adherent cells trypsinized and spun as well followed by the staining with AnnexinV-FITC and PI probes. Cells were then washed with PBS and measured via Fluorescence Activated Sorter.
(§2) This effect seems to be based mainly on the cytostatic effect of compound 1. To define the ability to kill cells, cell death-inducing potency (cytotoxic efficacy) of DFX and compound 1 have been tested via annexin V/PI staining commonly used as a measure of apoptotic/necrotic cell death (see example 15). […] Compound 1 killed cancer cells with effects higher by almost 3 orders of magnitude than those of deferasirox. Such results are unprecedented and very unexpected.

UPF4D leukemia cell line [2] = experiment: AnnexinV/PI assay, cell death induction, 48 hrs
Method: as §1, §2

UPF9T leukemia cell line [3] = experiment: AnnexinV/PI assay, cell death induction, 48 hrs
Method: as §1, §2

UPF1H leukemia cell line [4] = experiment: AnnexinV/PI assay, cell death induction, 48 hrs
Method: as §1, §2

[5] = tested on: tamoxifen resistant MCF7 (Tam5R); experiment: crystal violet assay, tamoxifen resistant cells; details: MCF7 Tam5R grown in the presence of 5 μM tamoxifen
Method: (§3) Compound 1 and a comparative compound deferasirox (DFX) were tested in their efficacy to kill/suppress proliferation of malignant breast cancer MCF7 cells representing estrogen-dependent type of breast cancer. Briefly, 10.000 cells per well were seeded in a 96-well plate on one day and the next day the tested compounds were added and incubated with the cells for 48 hrs. The cells were then fixed with 4% paraformaldehyde, stained with 0.05% crystal violet, washed with PBS, and solubilized in 1% SDS. The absorbance of the plate at 595 nm was then measured, quantifying the number of viable cells.
(§4) To test whether compound 1 is active against resistant cancer cells, we used tamoxifen-resistant MCF7, T47D. The IC50 values were again measured with the crystal violet assay performed as in example 12. We have documented that there is a significant difference in the ability of compound 1 to induce cytostatic and cytotoxic effects between the parental cells sensitive to tamoxifen and the resistant ones that grow even in the presence of tamoxifen (Table 11), yet the IC50 values are still in the nM range, making this compound very efficient.

[6] = tested on: tamoxifen resistant T47D (Tam5R); experiment: crystal violet assay, tamoxifen resistant cells; details: Homo sapiens, T47D Tam5R grown in the presence of 5 μM tamoxifen
Method: as §3, §4

MDA-MB-231 cells = experiment: crystal violet assay, cellular viability, 48 hrs; details: for IC50: MDA-MB-231, crystal violet, read-out: IC50
Method: as §3
Compound 1 and the comparative compound deferasirox were tested in their efficacy to kill/suppress proliferation of malignant MDA-MB-231 cancer cells representing hard to treat triple negative breast cancer. The procedure is identical to that in example 12.

[7] = tested on: non-malignant fibroblasts (HFP1); experiment: crystal violet assay, cellular viability, 48 hrs; details: Fibroblast
Method: [The source words this procedure for another cell line and reports this cell line under the same test.] as §3
(§5) Compounds 1, 2 and the comparative compound deferasirox were tested in their efficacy to suppress proliferation/kill several malignant cell lines of breast, pancreatic and ovarian origin (MCF7, MDA-MB-231, BxPC3 and OVCAR3). The procedure is identical to that in example 12.

BxPC3 = experiment: crystal violet assay, cellular viability, 48 hrs; details: Homo sapiens, BXPC-3
Method: as §3, §5

T47D = experiment: crystal violet assay, cellular viability, 48 hrs; details: T47D (parental/control)
Method: [The source words this procedure for another cell line and reports this cell line under the same test.] as §3, §5

OVCAR3 = experiment: crystal violet assay, cellular viability, 48 hrs; details: Homo sapiens, OVCAR-3
Method: as §3, §5

leukemia cells = experiment: alamarBlue viability, leukemia cells overall; details: several leukemia cells, 48 hrs; read-out: IC50 (suppression of proliferation to 50%)
Method: (§6) Compound 1 and a comparative compound deferasirox (DFX) were tested in their efficacy to kill/suppress proliferation of several leukemia cells. Briefly, 10.000 cells per well were seeded in a 96-well plate on one day and the next day the tested compounds were added and incubated with the cells for 48 hrs. Cellular viability was determined as the ability to reduce the probe alamarBlue™ Cell Viability Reagent.

MCF7 cells = experiment: crystal violet assay, cellular viability (cytostatic and cytotoxic effect), 48 hrs; details: for IC50: MCF7 (parental/control), crystal violet, read-out: IC50
Method: as §3

[8] = tested on: UPF16A leukemia cell line; experiment: alamarBlue Cell Viability Reagent, 48 hrs; details: 48 hrs, UPF16A
Method: as §6

UPF4D leukemia cell line [9] = experiment: alamarBlue Cell Viability Reagent, 48 hrs; details: 48 hrs, UPF4D
Method: as §6

UPF9T leukemia cell line [10] = experiment: alamarBlue Cell Viability Reagent, 48 hrs; details: 48 hrs, UPF9T
Method: as §6

UPF1H leukemia cell line [11] = experiment: alamarBlue Cell Viability Reagent, 48 hrs; details: 48 hrs
Method: as §6

[12] = 1 μM, read-out: viable cells compared to non-treated controls
[13] = 3 μM, read-out: viable cells compared to non-treated controls
[14] = 30 μM, read-out: viable cells compared to non-treated controls
[15] = 100 μM, read-out: viable cells compared to non-treated controls
[16] = 500 μM, read-out: viable cells compared to non-treated controls

**Q.** How did the “dead cells (AnnexinV/PI)” value ([1]; 1 μM) turn out when `O=C(O)c1ccc(-n2nc(-c3ccccc3O)nc2-c2ccccc2O)cc1` [DFX, deferasirox, reference compound] was run?
**A.** 13.7 (5.0) %

**Q.** And the “dead cells (AnnexinV/PI)” value ([1]; 10 μM)?
**A.** 48.4 (16.2) %

**Q.** What about the “dead cells (AnnexinV/PI)” value (UPF4D leukemia cell line [2]; 1 μM) of the same compound?
**A.** 16.9 (16.9) %

**Q.** And the “dead cells (AnnexinV/PI)” value (UPF4D leukemia cell line [2]; 10 μM)?
**A.** 77.3 (3.5) %

**Q.** What about the “dead cells (AnnexinV/PI)” value (UPF9T leukemia cell line [3]; 1 μM) of the same compound?
**A.** 13.7 (3.3) %

**Q.** What about the “dead cells (AnnexinV/PI)” value (UPF9T leukemia cell line [3]; 10 μM) of the same compound?
**A.** 46.6 (5.2) %

**Q.** And the “dead cells (AnnexinV/PI)” value (UPF1H leukemia cell line [4]; 1 μM)?
**A.** 9.9 (1.3) %

**Q.** And the “dead cells (AnnexinV/PI)” value (UPF1H leukemia cell line [4]; 10 μM)?
**A.** 95.8 (0.2) %

**Q.** And the IC50 [5]?
**A.** 15 µM

**Q.** What about the IC50 [6] of the same compound?
**A.** 82.6 µM

**Q.** And the viability at 1 µM (MDA-MB-231 cells; Homo sapiens, 1 μM, MDA-MB-231, read-out: viable cells compared to non-treated controls)?
**A.** 109%

**Q.** And the viability at 3 µM (MDA-MB-231 cells; Homo sapiens, 3 μM, MDA-MB-231, read-out: viable cells compared to non-treated controls)?
**A.** 90.8%

**Q.** And the viability at 10 µM (MDA-MB-231 cells; Homo sapiens, 10 μM, MDA-MB-231, read-out: viable cells compared to non-treated controls)?
**A.** 70.4%

**Q.** What about the viability at 30 µM (MDA-MB-231 cells; Homo sapiens, 30 μM, MDA-MB-231, read-out: viable cells compared to non-treated controls) of the same compound?
**A.** 62.1%

**Q.** And the viability at 100 µM (MDA-MB-231 cells; Homo sapiens, 100 μM, MDA-MB-231, read-out: viable cells compared to non-treated controls)?
**A.** 55.7%

**Q.** What about the viability at 300 µM (MDA-MB-231 cells; Homo sapiens, 300 μM, MDA-MB-231, read-out: viable cells compared to non-treated controls) of the same compound?
**A.** 14.1%

**Q.** What about the IC50 (MDA-MB-231 cells; Homo sapiens, MDA-MB-231, 48 h) of the same compound?
**A.** 70 µM

**Q.** What about the IC50 (MDA-MB-231 cells) of the same compound?
**A.** 70 µM

**Q.** What about the IC50 [7] of the same compound?
**A.** 37.9 µM

**Q.** And the IC50 (BxPC3)?
**A.** 22.9 µM

**Q.** What about the IC50 (T47D; Homo sapiens, T47D, 48 h) of the same compound?
**A.** 60.8 µM

**Q.** What about the IC50 (T47D) of the same compound?
**A.** 60.8 µM

**Q.** And the IC50 (OVCAR3)?
**A.** 19.2 µM

**Q.** And the IC50 (leukemia cells)?
**A.** 5 to 80 µM

**Q.** What about the viability at 1 µM (MCF7 cells; Homo sapiens, 1 μM, MCF7, read-out: viable cells compared to non-treated controls) of the same compound?
**A.** 104%

**Q.** What about the viability at 3 µM (MCF7 cells; Homo sapiens, 3 μM, MCF7, read-out: viable cells compared to non-treated controls) of the same compound?
**A.** 76%

**Q.** And the viability at 10 µM (MCF7 cells; Homo sapiens, 10 μM, MCF7, read-out: viable cells compared to non-treated controls)?
**A.** 56.5%

**Q.** What about the viability at 30 µM (MCF7 cells; Homo sapiens, 30 μM, MCF7, read-out: viable cells compared to non-treated controls) of the same compound?
**A.** 23.9%

**Q.** And the IC50 (MCF7 cells; Homo sapiens, MCF7, 48 h)?
**A.** 10 µM

**Q.** What about the IC50 (MCF7 cells) of the same compound?
**A.** 10.9 µM

**Q.** And the viability at 1 µM [8, 12]?
**A.** 82.5%

**Q.** What about the viability at 3 µM [8, 13] of the same compound?
**A.** 61.3%

**Q.** What about the viability at 30 µM [8, 14] of the same compound?
**A.** 34.7%

**Q.** And the viability at 100 µM [8, 15]?
**A.** 10.6%

**Q.** And the viability at 500 µM [8, 16]?
**A.** 9.7%

**Q.** And the IC50 ([8]; alamarBlue, read-out: IC50)?
**A.** 7.6 µM

**Q.** And the viability at 1 µM (UPF4D leukemia cell line [9]; [12])?
**A.** 92.7%

**Q.** What about the viability at 3 µM (UPF4D leukemia cell line [9]; [13]) of the same compound?
**A.** 61.9%

**Q.** What about the viability at 30 µM (UPF4D leukemia cell line [9]; [14]) of the same compound?
**A.** 2.9%

**Q.** And the viability at 100 µM (UPF4D leukemia cell line [9]; [15])?
**A.** 4%

**Q.** And the viability at 500 µM (UPF4D leukemia cell line [9]; [16])?
**A.** 11.1%

**Q.** And the IC50 (UPF4D leukemia cell line [9]; alamarBlue, read-out: IC50)?
**A.** 4.92 µM

**Q.** What about the viability at 1 µM (UPF9T leukemia cell line [10]; [12]) of the same compound?
**A.** 90.8%

**Q.** And the viability at 3 µM (UPF9T leukemia cell line [10]; [13])?
**A.** 81.3%

**Q.** And the viability at 30 µM (UPF9T leukemia cell line [10]; [14])?
**A.** 49.2%

**Q.** What about the viability at 100 µM (UPF9T leukemia cell line [10]; [15]) of the same compound?
**A.** 53.3%

**Q.** What about the viability at 500 µM (UPF9T leukemia cell line [10]; [16]) of the same compound?
**A.** 39%

**Q.** What about the IC50 (UPF9T leukemia cell line [10]; alamarBlue, read-out: IC50) of the same compound?
**A.** 80.2 µM

**Q.** What about the viability at 1 µM (UPF1H leukemia cell line [11]; [12]) of the same compound?
**A.** 94.3%

**Q.** And the viability at 3 µM (UPF1H leukemia cell line [11]; [13])?
**A.** 88%

**Q.** What about the viability at 30 µM (UPF1H leukemia cell line [11]; [14]) of the same compound?
**A.** 7.3%

**Q.** What about the viability at 100 µM (UPF1H leukemia cell line [11]; [15]) of the same compound?
**A.** 13.3%

**Q.** What about the viability at 500 µM (UPF1H leukemia cell line [11]; [16]) of the same compound?
**A.** 22.4%

**Q.** What about the IC50 (UPF1H leukemia cell line [11]; alamarBlue, read-out: IC50) of the same compound?
**A.** 9.6 µM

Reference: US20220251124A1, “3,5-BIS(PHENYL)-1H-HETEROARYL DERIVATIVES AS MEDICAMENTS” (INSTITUTE OF BIOTECHNOLOGY CAS, V.V.I., priority 2019, published 2022)
